Literature values in patent publication US9006270B2, “Polymorphs of (S)-pyrrolidine-1,2-dicarboxylic acid 2-amide 1-({4-methyl-5-[2-(2,2,2-trifluoro-1,1-dimethyl-ethyl)-pyridin-4-yl]-thiazol-2-yl}-amide” (Novartis AG, priority 2011, dated 2015).

Test system: phosphatidylinositol 3-kinase (PI3K)
Settings: described in WO 2010/029082

Q: Which “activity against the phosphatidylinositol 3-kinase (PI3K)” value does the source give for `Cc1nc(NC(=O)N2CCC[C@H]2C(N)=O)sc1-c1ccnc(C(C)(C)C(F)(F)F)c1` [Compound I, (S)-pyrrolidine-1,2-dicarboxylic acid 2-amide 1-(4-methyl-5-[2-(2,2,2-trifluoro-1,1-dimethyl-ethyl)-pyridin-4-yl]-thiazol-2-yl)-amide] here?
A: demonstrated activity
